Assay results published in ChEMBL document CHEMBL1201862, “PubChem BioAssay data set” (2004).
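A five-concentration, 48-hour dose response in 96-well plates underlies each endpoint, interpolated linearly between surrounding concentrations. GI50 is the concentration that inhibits growth by half.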 The source made the active and inactive calls. Cut-off read from the data, not from the text of the source: active = GI50 up to about 1.1 µM and inactive = higher.

How the values were obtained:
Assay in all cases: growth of human tumour cells (NCI), 48 h
A498 = system: A498
A549 = system: A549
CCRF-CEM = system: CCRF-CEM
COLO 205 = system: COLO 205
EKVX = system: EKVX
HOP-62 = system: HOP-62
Hs-578T = system: Hs-578T
M14 = system: M14
NCI-H226 = system: NCI-H226
NCI-H460 = system: NCI-H460
OVCAR-5 = system: OVCAR-5
RPMI-8226 = system: RPMI-8226
SK-MEL-28 = system: SK-MEL-28
SK-OV-3 = system: SK-OV-3
SR = system: SR
SW-620 = system: SW-620
U-251 = system: U-251
UO-31 = system: UO-31
SNB-75 = system: SNB-75

Measured: GI50

C=CCCC1(CC(Sc2ccccc2)P(=O)(c2ccccc2)c2ccccc2)OCCO1 (stereo unspecified)
inactive: A498 > 10 µM | A549 > 10 µM | CCRF-CEM > 10 µM | COLO 205 > 10 µM | EKVX > 10 µM | HOP-62 > 10 µM | Hs-578T > 10 µM | M14 > 10 µM | NCI-H226 > 10 µM | NCI-H460 > 10 µM | OVCAR-5 > 10 µM | RPMI-8226 > 10 µM | SK-MEL-28 > 10 µM | SK-OV-3 > 10 µM | SR > 10 µM | SW-620 > 10 µM | U-251 > 10 µM | UO-31 > 10 µM

CC(/C=N/N=C1NCCCCN1)=N\N=C1NCCCCN1
inactive: A549 > 100 µM | CCRF-CEM > 100 µM | COLO 205 22.3 µM | EKVX > 100 µM | HOP-62 > 100 µM | Hs-578T > 100 µM | M14 18.2 µM | NCI-H226 > 100 µM | NCI-H460 > 100 µM | OVCAR-5 > 100 µM | RPMI-8226 > 100 µM | SK-MEL-28 > 100 µM | SK-OV-3 > 100 µM | SNB-75 > 100 µM | SR 73.3 µM | SW-620 > 100 µM | U-251 > 100 µM | UO-31 > 100 µM

CC(C)(C)C1CCC2c3c([nH]c4ccccc34)C3C(=O)N(c4ccc5c(c4)C(=O)c4ccccc4C5=O)C(=O)C3C2C1 (stereo unspecified)
inactive: A498 > 100 µM | A549 > 100 µM | CCRF-CEM > 100 µM | COLO 205 > 100 µM | EKVX > 100 µM | HOP-62 > 100 µM | Hs-578T > 100 µM | M14 > 100 µM | NCI-H226 > 100 µM | NCI-H460 > 100 µM | OVCAR-5 > 100 µM | RPMI-8226 > 100 µM | SK-MEL-28 > 100 µM | SK-OV-3 > 100 µM | SR > 100 µM | SW-620 > 100 µM | U-251 > 100 µM

Cc1nnc2sc(-c3ccc(-c4ccccc4Cl)o3)nn12
inactive: A498 37.2 µM | A549 34.8 µM | CCRF-CEM 43.6 µM | COLO 205 38.5 µM | EKVX 33 µM | HOP-62 > 100 µM | Hs-578T 55.7 µM | M14 32 µM | NCI-H226 20.8 µM | NCI-H460 35.1 µM | OVCAR-5 > 100 µM | RPMI-8226 20.4 µM | SK-OV-3 57.9 µM | SR 19 µM | SW-620 20.9 µM | U-251 32.5 µM | UO-31 33.7 µM

O=c1c2cc([N+](=O)[O-])ccc2n2n1Cc1ccccc1CC2
inactive: A498 > 100 µM | A549 > 100 µM | CCRF-CEM > 100 µM | COLO 205 > 100 µM | EKVX 2.11 µM | HOP-62 > 100 µM | Hs-578T 74.8 µM | M14 > 100 µM | NCI-H226 > 100 µM | NCI-H460 > 100 µM | OVCAR-5 > 100 µM | RPMI-8226 > 100 µM | SK-MEL-28 > 100 µM | SK-OV-3 > 100 µM | SR > 100 µM | SW-620 > 100 µM | U-251 > 100 µM | UO-31 > 100 µM

COC(=O)c1c(O)ccc2c1c1c(n2Cc2ccccc2)C(=O)c2ccccc2C1=O
inactive: A549 7.76 µM | CCRF-CEM 15 µM | COLO 205 1.8 µM | EKVX 20.6 µM | HOP-62 23.6 µM | Hs-578T 18.5 µM | M14 20.4 µM | NCI-H226 18.3 µM | NCI-H460 10.7 µM | OVCAR-5 20.9 µM | RPMI-8226 8.55 µM | SK-MEL-28 17.5 µM | SK-OV-3 16.1 µM | SNB-75 15.6 µM | SR 15.6 µM | SW-620 19.2 µM | U-251 13.9 µM | UO-31 10.3 µM

C/C(=C\CO)CC/C=C(\C)CNc1c(F)c(F)c(F)c(F)c1F
inactive: A549 28.7 µM | CCRF-CEM 28.1 µM | COLO 205 27.5 µM | EKVX 30.7 µM | HOP-62 24.7 µM | Hs-578T 33.7 µM | M14 38.2 µM | NCI-H226 28.1 µM | NCI-H460 36.1 µM | OVCAR-5 36.5 µM | RPMI-8226 14 µM | SK-MEL-28 20.5 µM | SK-OV-3 63.8 µM | SNB-75 28.1 µM | SR 28.3 µM | SW-620 33.2 µM | U-251 24.3 µM | UO-31 35.6 µM

O=C(CP(=O)(c1ccccc1)c1ccccc1)c1cccc(C(=O)CP(=O)(c2ccccc2)c2ccccc2)c1
inactive: A549 > 100 µM | CCRF-CEM > 100 µM | COLO 205 > 100 µM | EKVX 56.8 µM | HOP-62 34.4 µM | Hs-578T 25.6 µM | M14 > 100 µM | NCI-H226 95.1 µM | NCI-H460 > 100 µM | OVCAR-5 58.6 µM | RPMI-8226 > 100 µM | SK-MEL-28 > 100 µM | SK-OV-3 23.3 µM | SNB-75 20.4 µM | SR > 100 µM | SW-620 > 100 µM | U-251 > 10 µM | UO-31 20.3 µM

O=C1NC(N2CCOCC2)=N/C1=C\c1cccs1
inactive: A549 > 100 µM | CCRF-CEM > 100 µM | COLO 205 > 100 µM | EKVX > 100 µM | HOP-62 > 100 µM | Hs-578T > 100 µM | M14 > 100 µM | NCI-H226 > 100 µM | OVCAR-5 > 100 µM | RPMI-8226 > 100 µM | SK-MEL-28 > 100 µM | SK-OV-3 > 100 µM | SNB-75 30.2 µM | SR > 100 µM | SW-620 > 100 µM | U-251 > 100 µM | UO-31 > 100 µM

C=CC1CN(C(=O)OCC)N(C(=O)OCC)C1CCc1ccccc1 (stereo unspecified)
inactive: A549 57.8 µM | CCRF-CEM 72.4 µM | COLO 205 71.6 µM | EKVX 72.4 µM | HOP-62 > 100 µM | Hs-578T > 100 µM | M14 > 100 µM | NCI-H226 > 100 µM | NCI-H460 74.1 µM | OVCAR-5 > 100 µM | RPMI-8226 30.9 µM | SK-MEL-28 > 100 µM | SK-OV-3 > 100 µM | SNB-75 68.9 µM | SR 65.9 µM | U-251 > 100 µM | UO-31 74.1 µM

Cc1cc(OCC(=O)N/N=C/C(Br)=C/c2ccccc2)nc(SCC(=O)N/N=C/C(Br)=C/c2ccccc2)n1
inactive: A498 > 100 µM | CCRF-CEM > 100 µM | COLO 205 39.1 µM | EKVX 80 µM | HOP-62 51.5 µM | Hs-578T 39.9 µM | M14 > 100 µM | NCI-H460 28.2 µM | OVCAR-5 > 100 µM | RPMI-8226 68.5 µM | SK-MEL-28 > 100 µM | SR > 100 µM | SW-620 > 100 µM | U-251 > 100 µM | UO-31 > 100 µM
